PubChem BioAssay (NCI)
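Step 1: Grow cells in 96-well plates. Step 2: Expose to compound for 48 hours at 5 concentrations. Step 3: Interpolate endpoints linearly; if unreached, use highest concentration. Definition used: TGI = concentration required for complete inhibition of growth.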

Experiments:
Test in all cases: NCI anticancer screen, dose series, 48 h
NCI-H226 lung = test system: NCI-H226 lung
U251 CNS = test system: U251 CNS
RPMI-8226 leukemia = test system: RPMI-8226 leukemia
NCI-H23 lung = test system: NCI-H23 lung
SW-620 colon = test system: SW-620 colon
TK-10 renal = test system: TK-10 renal
SNB-75 CNS = test system: SNB-75 CNS
A498 renal = test system: A498 renal
SNB-78 CNS = test system: SNB-78 CNS
DMS 114 small cell lung = test system: DMS 114 small cell lung
HOP-92 NSCLC = test system: HOP-92 NSCLC
LOX IMVI melanoma = test system: LOX IMVI melanoma
OVCAR-5 ovarian = test system: OVCAR-5 ovarian
DLD-1 colon = test system: DLD-1 colon
HL-60(TB) leukemia = test system: HL-60(TB) leukemia
KM12 colon = test system: KM12 colon
HOP-18 NSCLC = test system: HOP-18 NSCLC
SK-MEL-5 melanoma = test system: SK-MEL-5 melanoma
HT29 colon = test system: HT29 colon
SF-268 CNS = test system: SF-268 CNS
SF-539 CNS = test system: SF-539 CNS
OVCAR-8 ovarian = test system: OVCAR-8 ovarian
IGROV1 ovarian = test system: IGROV1 ovarian
EKVX NSCLC = test system: EKVX NSCLC
OVCAR-4 ovarian = test system: OVCAR-4 ovarian
LXFL 529 NSCLC = test system: LXFL 529 NSCLC
XF 498 CNS = test system: XF 498 CNS
SN12C renal = test system: SN12C renal
A549 NSCLC = test system: A549 NSCLC
UO-31 renal = test system: UO-31 renal
M19-MEL melanoma = test system: M19-MEL melanoma
UACC-62 melanoma = test system: UACC-62 melanoma
786-0 renal = test system: 786-0 renal
MALME-3M melanoma = test system: MALME-3M melanoma
M14 melanoma = test system: M14 melanoma
NCI-H522 lung = test system: NCI-H522 lung
UACC-257 melanoma = test system: UACC-257 melanoma
RXF 393 renal = test system: RXF 393 renal
K-562 leukemia = test system: K-562 leukemia
CCRF-CEM leukemia = test system: CCRF-CEM leukemia
RXF-631 renal = test system: RXF-631 renal
SNB-19 CNS = test system: SNB-19 CNS
CAKI-1 renal = test system: CAKI-1 renal
KM20L2 colon = test system: KM20L2 colon
OVCAR-3 ovarian = test system: OVCAR-3 ovarian
HCT-116 colon = test system: HCT-116 colon
MOLT-4 leukemia = test system: MOLT-4 leukemia
SK-MEL-28 melanoma = test system: SK-MEL-28 melanoma
SR leukemia = test system: SR leukemia
NCI-H460 lung = test system: NCI-H460 lung
HCC-2998 colon = test system: HCC-2998 colon
SK-OV-3 ovarian = test system: SK-OV-3 ovarian
HOP-62 NSCLC = test system: HOP-62 NSCLC
SF-295 CNS = test system: SF-295 CNS
COLO 205 colon = test system: COLO 205 colon
ACHN renal = test system: ACHN renal
HCT-15 colon = test system: HCT-15 colon
DMS 273 small cell lung = test system: DMS 273 small cell lung
SK-MEL-2 melanoma = test system: SK-MEL-2 melanoma

## O=C(Nc1nc(=S)[nH][nH]1)C(=O)C(c1cnc2ccc([N+](=O)[O-])cc2n1)[N+](=O)[O-] (centres undefined)
NCI-H226 lung
  TGI: > 100 µM
U251 CNS
  TGI: > 100 µM
RPMI-8226 leukemia
  TGI: > 100 µM
NCI-H23 lung
  TGI: > 100 µM
SW-620 colon
  TGI: > 100 µM
TK-10 renal
  TGI: > 100 µM
SNB-75 CNS
  TGI: > 100 µM
A498 renal
  TGI: > 100 µM
SNB-78 CNS
  TGI: > 100 µM
DMS 114 small cell lung
  TGI: > 100 µM
HOP-92 NSCLC
  TGI: > 100 µM
LOX IMVI melanoma
  TGI: > 100 µM
OVCAR-5 ovarian
  TGI: > 100 µM
DLD-1 colon
  TGI: > 100 µM
HL-60(TB) leukemia
  TGI: > 100 µM
KM12 colon
  TGI: > 100 µM
HOP-18 NSCLC
  TGI: > 100 µM
SK-MEL-5 melanoma
  TGI: > 100 µM
HT29 colon
  TGI: > 100 µM
SF-268 CNS
  TGI: > 100 µM
SF-539 CNS
  TGI: > 100 µM
OVCAR-8 ovarian
  TGI: > 100 µM
IGROV1 ovarian
  TGI: > 100 µM
EKVX NSCLC
  TGI: > 100 µM
OVCAR-4 ovarian
  TGI: > 100 µM
LXFL 529 NSCLC
  TGI: > 100 µM
XF 498 CNS
  TGI: > 100 µM
SN12C renal
  TGI: > 100 µM
A549 NSCLC
  TGI: > 100 µM
UO-31 renal
  TGI: > 100 µM
M19-MEL melanoma
  TGI: > 100 µM
UACC-62 melanoma
  TGI: > 100 µM
786-0 renal
  TGI: > 100 µM
MALME-3M melanoma
  TGI: > 100 µM
M14 melanoma
  TGI: > 100 µM
NCI-H522 lung
  TGI: > 100 µM
UACC-257 melanoma
  TGI: > 100 µM
RXF 393 renal
  TGI: > 100 µM
K-562 leukemia
  TGI: > 100 µM
CCRF-CEM leukemia
  TGI: > 100 µM
RXF-631 renal
  TGI: > 100 µM
SNB-19 CNS
  TGI: > 100 µM
CAKI-1 renal
  TGI: > 100 µM
KM20L2 colon
  TGI: > 100 µM
OVCAR-3 ovarian
  TGI: > 100 µM
HCT-116 colon
  TGI: > 100 µM
MOLT-4 leukemia
  TGI: > 100 µM
SK-MEL-28 melanoma
  TGI: > 100 µM
SR leukemia
  TGI: > 100 µM
NCI-H460 lung
  TGI: > 100 µM
HCC-2998 colon
  TGI: > 100 µM
SK-OV-3 ovarian
  TGI: > 100 µM
HOP-62 NSCLC
  TGI: > 100 µM
SF-295 CNS
  TGI: > 100 µM
COLO 205 colon
  TGI: > 100 µM
ACHN renal
  TGI: > 100 µM
HCT-15 colon
  TGI: > 100 µM

## COc1ccc(/C=C/C(=O)c2c(-c3ccccc3)nn(C)c(=O)c2N2CCCCC2)cc1
U251 CNS
  TGI: 30.1 µM
RPMI-8226 leukemia
  TGI: 31.8 µM
NCI-H23 lung
  TGI: 50.7 µM
SW-620 colon
  TGI: > 100 µM
TK-10 renal
  TGI: > 100 µM
DMS 114 small cell lung
  TGI: 78.4 µM
HOP-92 NSCLC
  TGI: 16.8 µM
LOX IMVI melanoma
  TGI: 38.2 µM
DLD-1 colon
  TGI: 82.6 µM
HOP-18 NSCLC
  TGI: 73.9 µM
DMS 273 small cell lung
  TGI: > 100 µM
SK-MEL-5 melanoma
  TGI: 29.1 µM
HT29 colon
  TGI: 35.9 µM
SF-268 CNS
  TGI: 66.1 µM
SF-539 CNS
  TGI: 37.8 µM
OVCAR-8 ovarian
  TGI: > 100 µM
IGROV1 ovarian
  TGI: 77.9 µM
EKVX NSCLC
  TGI: > 100 µM
LXFL 529 NSCLC
  TGI: 98.8 µM
SN12C renal
  TGI: 64.2 µM
A549 NSCLC
  TGI: > 100 µM
UO-31 renal
  TGI: 34.7 µM
M19-MEL melanoma
  TGI: 79.3 µM
UACC-62 melanoma
  TGI: 44.8 µM
786-0 renal
  TGI: 38.2 µM
M14 melanoma
  TGI: 66 µM
NCI-H522 lung
  TGI: 27.3 µM
RXF 393 renal
  TGI: 28 µM
K-562 leukemia
  TGI: 63 µM
CCRF-CEM leukemia
  TGI: 40.2 µM
RXF-631 renal
  TGI: > 100 µM
SNB-19 CNS
  TGI: 86.5 µM
CAKI-1 renal
  TGI: 92.4 µM
KM20L2 colon
  TGI: 33.8 µM
HCT-116 colon
  TGI: 23.6 µM
MOLT-4 leukemia
  TGI: 23.1 µM
SK-MEL-28 melanoma
  TGI: 30.2 µM
NCI-H460 lung
  TGI: 49.4 µM
SK-OV-3 ovarian
  TGI: 77.6 µM
SF-295 CNS
  TGI: 44.4 µM
COLO 205 colon
  TGI: 44 µM
ACHN renal
  TGI: > 100 µM
HCT-15 colon
  TGI: > 100 µM

## CC1CCCP(=O)(c2ccccc2)CCC1 (centres undefined)
U251 CNS
  TGI: > 100 µM
RPMI-8226 leukemia
  TGI: > 100 µM
NCI-H23 lung
  TGI: > 100 µM
SW-620 colon
  TGI: > 100 µM
TK-10 renal
  TGI: > 100 µM
SNB-75 CNS
  TGI: > 100 µM
A498 renal
  TGI: > 100 µM
SNB-78 CNS
  TGI: > 100 µM
DMS 114 small cell lung
  TGI: > 100 µM
LOX IMVI melanoma
  TGI: > 100 µM
OVCAR-5 ovarian
  TGI: > 100 µM
DLD-1 colon
  TGI: > 100 µM
HL-60(TB) leukemia
  TGI: > 100 µM
KM12 colon
  TGI: > 100 µM
HOP-18 NSCLC
  TGI: 96.4 µM
DMS 273 small cell lung
  TGI: > 100 µM
SK-MEL-5 melanoma
  TGI: > 100 µM
HT29 colon
  TGI: > 100 µM
SF-268 CNS
  TGI: > 100 µM
SF-539 CNS
  TGI: > 100 µM
OVCAR-8 ovarian
  TGI: > 100 µM
IGROV1 ovarian
  TGI: > 100 µM
EKVX NSCLC
  TGI: > 100 µM
OVCAR-4 ovarian
  TGI: > 100 µM
LXFL 529 NSCLC
  TGI: > 100 µM
XF 498 CNS
  TGI: > 100 µM
SN12C renal
  TGI: > 100 µM
SK-MEL-2 melanoma
  TGI: > 100 µM
A549 NSCLC
  TGI: > 100 µM
UO-31 renal
  TGI: > 100 µM
M19-MEL melanoma
  TGI: > 100 µM
UACC-62 melanoma
  TGI: > 100 µM
786-0 renal
  TGI: > 100 µM
MALME-3M melanoma
  TGI: > 100 µM
M14 melanoma
  TGI: > 100 µM
UACC-257 melanoma
  TGI: > 100 µM
RXF 393 renal
  TGI: > 100 µM
K-562 leukemia
  TGI: > 100 µM
CCRF-CEM leukemia
  TGI: > 100 µM
RXF-631 renal
  TGI: > 100 µM
SNB-19 CNS
  TGI: > 100 µM
CAKI-1 renal
  TGI: > 100 µM
KM20L2 colon
  TGI: > 100 µM
OVCAR-3 ovarian
  TGI: > 100 µM
MOLT-4 leukemia
  TGI: > 100 µM
SK-MEL-28 melanoma
  TGI: > 100 µM
NCI-H460 lung
  TGI: > 100 µM
HCC-2998 colon
  TGI: > 100 µM
SK-OV-3 ovarian
  TGI: > 100 µM
HOP-62 NSCLC
  TGI: > 100 µM
SF-295 CNS
  TGI: > 100 µM
COLO 205 colon
  TGI: > 100 µM
ACHN renal
  TGI: > 100 µM
HCT-15 colon
  TGI: > 100 µM
